Results reported in patent US20260042764A1, “COMPOSITIONS AND METHODS FOR INHIBITION OF KRAS” (TheRas, Inc., priority 2022, published 2026).

Tests used:
SW620 cells (KRAS G12V) = assay: Cell-based pERK HTRF assay in SW620 cell (Biological Example 4); conditions: Homo sapiens
Method in brief: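 This assay measures inhibition of ERK phosphorylation downstream of KRAS G12V in intact SW620 cells. Compounds are applied for 4 h over nine half-log concentrations starting at 1 μM, and pERK is quantified by HTRF.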

GP2d cells (KRAS G12D) = assay: Cell-based pERK HTRF assay in GP2d cell (Biological Example 2); conditions: GP2d
Method in brief: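 Cells grown in DMEM with 10% FBS were exposed to compound for 60 min at 0.25% DMSO, using a 9-point half-log series starting at 1 μM or 100 nM. Lysates were then mixed with d2 and Eu cryptate antibodies for 4–24 h at room temperature, and pERK was read by HTRF.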

[1] = target: T1, Avi-KRAS G12V (2-169) GTP/RAF1 RBD-3xFLAG (51-131) (Homo sapiens, UniProt P01116, G12V); assay: Raf1-KRAS G12V-GTP disruption HTRF assay (Biological Example 3); assay type: binding
T1 construct: Avi-KRAS G12V (2-169)
T1 sequence (P01116 2-169 isoform P01116-2 G12V): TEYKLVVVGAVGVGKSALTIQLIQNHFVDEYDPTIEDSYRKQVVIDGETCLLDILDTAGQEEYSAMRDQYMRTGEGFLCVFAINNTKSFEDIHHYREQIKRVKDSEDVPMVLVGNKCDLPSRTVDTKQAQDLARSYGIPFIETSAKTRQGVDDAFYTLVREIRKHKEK
Method in brief: (§1)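 50 nM Avi-KRAS (2-169) GTP/RAF1 RBD complex; 75 nM RBD-Avi; pH 7.5 Tris buffer, 10% DMSO; cpd 30 μM top, 3x, 10 pts; 1 h RT, 700 rpm; HTRF, % of DMSO.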

[2] = target: T2, Avi-KRAS WT (2-169) GTP/RAF1 RBD-3xFLAG (51-131) (Homo sapiens, UniProt P01116); assay: Raf1-KRAS WT-GTP disruption HTRF assay (Biological Example 3); assay type: binding
T2 construct: Avi-KRAS WT (2-169)
T2 sequence (P01116 2-169 isoform P01116-2): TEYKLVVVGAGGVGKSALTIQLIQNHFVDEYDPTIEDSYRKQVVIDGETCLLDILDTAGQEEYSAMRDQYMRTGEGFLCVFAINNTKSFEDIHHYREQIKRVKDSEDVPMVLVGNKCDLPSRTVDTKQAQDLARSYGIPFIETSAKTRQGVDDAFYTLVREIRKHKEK
Method in brief: as §1

[3] = target: T3, Avi-KRAS G12D (2-169) GTP/RAF1 RBD-3xFLAG (51-131) (Homo sapiens, UniProt P01116, G12D); assay: Raf1-KRAS G12D-GTP disruption HTRF assay (Biological Example 3); assay type: binding
T3 construct: Avi-KRAS G12D (2-169)
T3 sequence (P01116 2-169 isoform P01116-2 G12D): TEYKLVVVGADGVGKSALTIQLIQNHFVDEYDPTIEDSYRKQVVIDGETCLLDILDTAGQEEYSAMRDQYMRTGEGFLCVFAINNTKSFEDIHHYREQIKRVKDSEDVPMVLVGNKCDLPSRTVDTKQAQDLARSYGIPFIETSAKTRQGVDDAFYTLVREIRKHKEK
Method in brief: as §1

[4] = target: T4, Avi-KRAS G12C (2-169) GTP/RAF1 RBD-3xFLAG (51-131) (Homo sapiens, UniProt P01116, G12C); assay: Raf1-KRAS G12C-GTP disruption HTRF assay (Biological Example 3); assay type: binding
T4 construct: Avi-KRAS G12C (2-169)
T4 sequence (P01116 2-169 isoform P01116-2 G12C): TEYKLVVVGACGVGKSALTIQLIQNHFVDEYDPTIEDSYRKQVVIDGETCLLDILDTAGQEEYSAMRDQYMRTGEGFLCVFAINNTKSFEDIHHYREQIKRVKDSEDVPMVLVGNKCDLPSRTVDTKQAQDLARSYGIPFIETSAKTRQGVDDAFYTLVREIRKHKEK
Method in brief: as §1

[5] = SW-620, SW620 (KRAS G12V) cells

| Compound | IC50 (SW620 cells (KRAS G12V); [5]) [nM] | IC50 (GP2d cells (KRAS G12D); GP2d (KRAS G12D) cells) [nM] | IC50 ([1]; KRAS G12V, GTP-loaded) [nM] | IC50 ([2]; KRAS WT, GTP-loaded) [nM] | IC50 ([3]; KRAS G12D, GTP-loaded) [nM] | IC50 ([4]; KRAS G12C, GTP-loaded) [nM] | IC50 (SW620 cells (KRAS G12V); SW-620, SW620 cells (KRAS G12V)) [nM] | IC50 (GP2d cells (KRAS G12D); GP2d cells (KRAS G12D)) [nM] | IC50 ([1]; KRAS G12V-GTP / RAF1 RBD HTRF) [nM] | IC50 ([2]; KRAS WT-GTP / RAF1 RBD HTRF) [nM] | IC50 ([3]; KRAS G12D-GTP / RAF1 RBD HTRF) [nM] | IC50 ([4]; KRAS G12C-GTP / RAF1 RBD HTRF) [nM] |
| --- | --- | --- | --- | --- | --- | --- | --- | --- | --- | --- | --- | --- |
| CN(CC1COC1)c1nc(OC[C@@]23CCCN2C[C@H](F)C3)nc2c(F)c(-c3ccc(F)c4sc(N)c(C#N)c34)c(C(F)(F)F)cc12 (atropisomer, axis not shown) [Compound 963] | > 1000 | > 1000 | > 10000 | 1000 to 10000 | 1000 to 10000 | > 10000 |  |  |  |  |  |  |
| CCN(c1nc(OC[C@@]23CCCN2C[C@H](F)C3)nc2c(F)c(-c3ccc(F)c4sc(N)c(C#N)c34)c(C(F)(F)F)cc12)[C@H]1CCCOC1 (atropisomer, axis not shown) [Compound 965] | < 100 | < 100 | 100 to 1000 | 100 to 1000 | 100 to 1000 | 100 to 1000 |  |  |  |  |  |  |
| CCN(c1nc(OC[C@@]23CCCN2C[C@H](F)C3)nc2c(F)c(-c3ccc(F)c4sc(N)c(C#N)c34)c(C(F)(F)F)cc12)[C@@H]1CO[C@H]2OCC[C@H]21 (atropisomer, axis not shown) [Compound 966] | < 100 | < 100 | 100 to 1000 | 100 to 1000 | 100 to 1000 | 100 to 1000 |  |  |  |  |  |  |
| CCN(c1nc(OC[C@@]23CCCN2C[C@H](F)C3)nc2c(F)c(-c3ccc(F)c4sc(N)c(C#N)c34)c(C(F)(F)F)cc12)[C@H]1CCCN(C)C1=O (atropisomer, axis not shown) [Compound 967] | < 100 | < 100 | 1000 to 10000 | 1000 to 10000 | 100 to 1000 | 1000 to 10000 |  |  |  |  |  |  |
| CCN(c1nc(OC[C@@]23CCCN2C[C@H](F)C3)nc2c(F)c(-c3ccc(F)c4sc(N)c(C#N)c34)c(C(F)(F)F)cc12)[C@@H]1CCCN(C)C1=O (atropisomer, axis not shown) [Compound 968] | < 100 | < 100 | 1000 to 10000 | 100 to 1000 | 100 to 1000 | 1000 to 10000 |  |  |  |  |  |  |
| CCN(c1nc(OC[C@@]23CCCN2C[C@H](F)C3)nc2c(F)c(-c3ccc(F)c4sc(N)c(C#N)c34)c(C(F)(F)F)cc12)[C@H]1C[C@H]2CN(C3CCC3)C(=O)N2[C@@H]1C (atropisomer, axis not shown) [Compound 970] | < 100 | < 100 | 100 to 1000 | 100 to 1000 | 100 to 1000 | 100 to 1000 |  |  |  |  |  |  |
| CN(c1nc(OC[C@@]23CCCN2C[C@H](F)C3)nc2c(F)c(-c3ccc(F)c4sc(N)c(C#N)c34)c(C(F)(F)F)cc12)[C@H]1CCCc2ccncc21 (atropisomer, axis not shown) [Compound 971] | < 100 | < 100 | > 10000 | > 10000 | > 10000 | > 10000 |  |  |  |  |  |  |
| CN(c1nc(OC[C@@]23CCCN2C[C@H](F)C3)nc2c(F)c(-c3ccc(F)c4sc(N)c(C#N)c34)c(C(F)(F)F)cc12)[C@@H]1CCCc2ccncc21 (atropisomer, axis not shown) [Compound 972] |  |  |  |  |  |  | < 100 | < 100 | 100 to 1000 | 100 to 1000 | 100 to 1000 | 100 to 1000 |
| CCN(c1nc(OC[C@@]23CCCN2C[C@H](F)C3)nc2c(F)c(-c3ccc(F)c4sc(N)c(C#N)c34)c(C(F)(F)F)cc12)[C@H]1C[C@H]2CCCC(=O)N2C1 (atropisomer, axis not shown; (aR)) [Compound 662, 2-amino-4-((S)-4-(ethyl((2S,8aR)-5-oxooctahydroindolizin-2-yl)amino)-8-fluoro-2-(((2R,7aS)-2-fluorotetrahydro-1H-pyrrolizin-7a(5H)-yl)methoxy)-6-(trifluoromethyl)quinazolin-7-yl)-7-fluorobenzo[b]thiophene-3-carbonitrile] | < 100 | < 100 | ≤ 100 | 100 to 1000 | ≤ 100 | ≤ 100 |  |  |  |  |  |  |
| CCN(c1nc(OC[C@@]23CCCN2C[C@H](F)C3)nc2c(F)c(-c3ccc(F)c4sc(N)c(C#N)c34)c(C(F)(F)F)cc12)[C@H]1C[C@H](C)N(C(=O)[C@@H]2C[C@H]2F)C1 (atropisomer, axis not shown; (aS)) [Compound 893, 2-amino-4-((S)-4-(ethyl((3S,5S)-1-((1S,2R)-2-fluorocyclopropane-1-carbonyl)-5-methylpyrrolidin-3-yl)amino)-8-fluoro-2-(((2R,7aS)-2-fluorotetrahydro-1H-pyrrolizin-7a (5H)-yl)methoxy)-6-(trifluoromethyl)quinazolin-7-yl)-7-fluorobenzo[b]thiophene-3-carbonitrile] | < 100 | < 100 | ≤ 100 | 100 to 1000 | 100 to 1000 | 100 to 1000 |  |  |  |  |  |  |
| C[C@H](c1cccnc1)N(C)c1nc(OC[C@@]23CCCN2C[C@H](F)C3)nc2c(F)c(-c3ccc(F)c4sc(N)c(C#N)c34)c(C(F)(F)F)cc12 (atropisomer, axis not shown; (aS)) [Compound 904, 2-amino-7-fluoro-4-((S)-8-fluoro-2-(((2R,7aS)-2-fluorotetrahydro-1H-pyrrolizin-7a(5H)-yl)methoxy)-4-(methyl((R)-1-(pyridin-3-yl)ethyl)amino)-6-(trifluoromethyl)quinazolin-7-yl)benzo[b]thiophene-3-carbonitrile] | < 100 | < 100 | 1000 to 10000 | 1000 to 10000 | 1000 to 10000 | 1000 to 10000 |  |  |  |  |  |  |
| CCN(c1nc(OC[C@@]23CCCN2C[C@H](F)C3)nc2c(F)c(-c3ccc(F)c4sc(N)c(C#N)c34)c(C(F)(F)F)cc12)[C@H]1CCN(C(=O)c2cncs2)C1 (atropisomer, axis not shown; (aS)) [Compound 906, 2-amino-4-((S)-4-(ethyl((S)-1-(thiazole-5-carbonyl)pyrrolidin-3-yl)amino)-8-fluoro-2-(((2R,7aS)-2-fluorotetrahydro-1H-pyrrolizin-7a(5H)-yl)methoxy)-6-(trifluoromethyl)quinazolin-7-yl)-7-fluorobenzo[b]thiophene-3-carbonitrile] | < 100 | < 100 | 100 to 1000 | 100 to 1000 | 100 to 1000 | 100 to 1000 |  |  |  |  |  |  |
| CCN(c1nc(OC[C@@]23CCCN2C[C@H](F)C3)nc2c(F)c(-c3ccc(F)c4sc(N)c(C#N)c34)c(C(F)(F)F)cc12)[C@H]1CCN(C(=O)N2CC3C(C2)C3(C)C)C1 (stereo partly drawn) [Compound 817] | < 100 | < 100 | 100 to 1000 | 1000 to 10000 | 100 to 1000 | 100 to 1000 |  |  |  |  |  |  |
| CCN(c1nc(OC[C@@]23CCCN2C[C@H](F)C3)nc2c(F)c(-c3ccc(F)c4sc(N)c(C#N)c34)c(C(F)(F)F)cc12)[C@H]1CCN(C(=O)c2ccon2)[C@@H]1C [Compound 838] | < 100 | < 100 | 100 to 1000 | 100 to 1000 | 100 to 1000 | 100 to 1000 |  |  |  |  |  |  |
| CCN(c1nc(OC[C@@]23CCCN2C[C@H](F)C3)nc2c(F)c(-c3ccc(F)c4sc(N)c(C#N)c34)c(C(F)(F)F)cc12)[C@H]1CCN(C(=O)C2CC(OC)C2)C1 (stereo partly drawn) [Compound 844] | < 100 | < 100 | 100 to 1000 | 100 to 1000 | 100 to 1000 | 100 to 1000 |  |  |  |  |  |  |
